Measured values reported in ChEMBL document CHEMBL1132895, “Immunomodulatory activity of hexapeptides related to proline rich peptide from colostrum” (2000).
Non-standard residues stand in square brackets, D forms with d. Residues, ends and D or L forms follow the SMILES beside them. Nva = CCC[C@H](N)C(=O)O; Sar = CNCC(=O)O

Columns and labels:
Format in all cases: functional
[1] = organism: Mus musculus; assay: Compound (10 ug/mL) was tested for their immunomodulatory activity in vitro using lymphocyte transformation test
[2] = organism: Mus musculus; assay: Compound (0.01 ug/mL) was tested for their immunomodulatory activity in vitro using lymphocyte transformation test
[3] = organism: Mus musculus; assay: Compound (10 ug/mL) was tested for their immunomodulatory activity in vitro using mixed lymphocyte reaction
[4] = organism: Mus musculus; assay: Compound (0.01 ug/mL) was tested for their immunomodulatory activity in vitro using mixed lymphocyte reaction
[5] = organism: Mus musculus; assay: Compound (1.0 ug/mL) was tested for their immunomodulatory activity in vitro using mixed lymphocyte reaction
[6] = organism: Mus musculus; assay: Compound (0.10 ug/mL) was tested for their immunomodulatory activity in vitro using lymphocyte transformation test
[7] = organism: Mus musculus; assay: Compound (1.0 ug/mL) was tested for their immunomodulatory activity in vitro using lymphocyte transformation test
[8] = organism: Mus musculus; assay: Compound (0.10 ug/mL) was tested for their immunomodulatory activity in vitro using mixed lymphocyte reaction

Compound	Stimulation index [1]	Stimulation index [2]	Stimulation index [3]	Stimulation index [4]	Stimulation index [5]	Stimulation index [6]	Stimulation index [7]	Stimulation index [8]
CC(C)[C@H](NC(=O)[C@@H](N)Cc1ccc(O)cc1)C(=O)N1CCC[C@H]1C(=O)NCC(=O)N[C@@H](Cc1ccccc1)C(=O)N1CCC[C@H]1C(=O)O	0.75	1.13	1	0.72	0.85	1.05	1.02	0.79
CC(C)[C@H](NC(=O)[C@@H](N)Cc1ccc(O)cc1)C(=O)N1CCC[C@H]1C(=O)NCC(=O)N[C@@H](Cc1ccccc1)C(=O)N(C)CC(=O)O (H-YVPGF[Sar]-OH)	1.6	0.83	0.92	0.71	0.72	0.61	1.9	0.8
CC(C)C[C@H](NC(=O)[C@@H]1CCCN1C(=O)[C@@H](NC(=O)[C@@H](N)Cc1ccc(O)cc1)C(C)C)C(=O)N[C@@H](Cc1ccccc1)C(=O)N(C)CC(=O)O (H-YVPLF[Sar]-OH)	1.2	0.9	–	–	–	0.86	1.21	–
CC(C)[C@H](NC(=O)[C@@H](N)Cc1ccc(O)cc1)C(=O)N1CCC[C@H]1C(=O)N(C)CC(=O)N[C@@H](Cc1ccccc1)C(=O)N1CCC[C@H]1C(=O)O (H-YVP[Sar]FP-OH)	0.96	1.41	–	–	–	1.21	1.37	–
CCC[C@H](NC(=O)[C@@H](N)Cc1ccc(O)cc1)C(=O)N1CCC[C@H]1C(=O)NCC(=O)N[C@@H](Cc1ccccc1)C(=O)N1CCC[C@H]1C(=O)O (H-Y[Nva]PGFP-OH)	0.73	0.86	–	–	–	1.06	1.15	–
CC(C)C[C@H](NC(=O)CN(C)C(=O)[C@@H](NC(=O)[C@@H](N)Cc1ccc(O)cc1)C(C)C)C(=O)N[C@@H](Cc1ccccc1)C(=O)N1CCCC1C(=O)O (single isomer, unassigned)	1.12	0.88	–	–	–	0.97	1.24	–
C[C@]12C=CC(=O)C=C1CCC1[C@@H]2[C@@H](O)C[C@@]2(C)[C@H]1CC[C@]2(O)C(=O)CO (single isomer, unassigned) [PREDNISOLONE]	–	–	–	–	–	–	–	0.3
CC(C)C[C@H](NC(=O)C1CCCN1C(=O)[C@@H](NC(=O)C(N)Cc1ccc(O)cc1)C(C)C)C(=O)N[C@@H](Cc1ccccc1)C(=O)N1CCCC1C(=O)O (single isomer, unassigned; form 1)	0.82	1.1	–	–	–	1.08	0.88	–
CC(C)[C@H](NC(=O)[C@@H](N)Cc1ccc(O)cc1)C(=O)N1CCCC1C(=O)NCC(=O)NC(Cc1ccccc1)C(=O)N1CCCC1C(=O)O (single isomer, unassigned; form 1)	1.05	0.89	–	–	–	1.02	0.96	–
CC(C)C[C@H](NC(=O)C1CCCN1C(=O)[C@@H](NC(=O)C(N)Cc1ccc(O)cc1)C(C)C)C(=O)N[C@@H](Cc1ccccc1)C(=O)N1CCCC1C(=O)O (single isomer, unassigned; form 2)	0.95	0.78	–	–	–	0.86	1.27	–
CC(C)[C@H](NC(=O)[C@@H](N)Cc1ccc(O)cc1)C(=O)N1CCCC1C(=O)NCC(=O)NC(Cc1ccccc1)C(=O)N1CCCC1C(=O)O (single isomer, unassigned; form 2)	1.4	0.97	1	0.96	1.31	1.29	1.17	0.9
H-YLPGFP-OH	0.59	0.75	1.24	0.63	1.2	0.64	0.62	0.5
H-YVPGFP-NH2	0.84	0.83	–	–	–	0.85	1.1	–
